Here are results for 42 molecules from ChEMBL document CHEMBL6114992, “Design, synthesis, biological evaluation, and mechanism of action of new pyrazines as anticancer agents in vitro and in vivo” (Bioorg Med Chem, 2025).

Holding throughout (type): functional, cell-based
One test has as its system U-937. Nature of the test: Antiproliferative activity against human U-937 cells assessed as inhibition of cell growth incubated for 72 hrs by MTT assay. The following applies: U-937, 72 h.
The next test relates to KG-1. The test is described as follows: Antiproliferative activity against human KG-1 cells assessed as inhibition of cell growth incubated for 72 hrs by MTT assay. The note with it: KG-1, 72 h.
The test system of a further test is SK-OV-3. Nature of the test: Antiproliferative activity against human SK-OV-3 cells assessed as inhibition of cell growth incubated for 72 hrs by MTT assay. The note with it: SK-OV-3, 72 h.
Test [1] in a line: Antiproliferative activity against human SK-OV-3/Taxol cells assessed as inhibition of cell growth incubated for 72 hrs by MTT assay. The following applies: SK-OV-3, 72 h.
For another test, the system named is THP-1. The test is described as follows: Antiproliferative activity against human THP-1 cells assessed as inhibition of cell growth incubated for 72 hrs by MTT assay. The following applies: THP-1, 72 h.

On to `Cc1nccnc1C(=O)/C=C/c1ccccc1`, for which the IC50 in the test with U-937 stood at 5.43 µM; with KG-1 it was 1.64 µM; in the test on SK-OV-3, 5.17 µM; in test [1] it was 5.04 µM; in the test with THP-1, 1.79 µM.
On the same counts, the results for `Cc1nccnc1C(=O)/C=C/c1ccc(Cl)cc1` are 2.96 µM, 10.4 µM, 9.75 µM, 11.8 µM and 17 µM.
In the case of `O=C(/C=C/c1ccccc1Br)c1cnccn1`, the IC50 came to 11.6 µM with U-937; 8.94 µM in the test with KG-1; 12.1 µM in the test on SK-OV-3; 14.1 µM in test [1]; 15.5 µM in the test with THP-1.
Consider `CC(C)(C)c1ccc(/C=C/C(=O)c2cnccn2)cc1`, for which the IC50 was 13.7 µM in the test on U-937; 13.4 µM with KG-1; 15.5 µM in the test on SK-OV-3; 12.5 µM in test [1]; 16 µM with THP-1.
`CCc1nccnc1C(=O)/C=C/c1ccc(Cl)cc1`: the IC50 came to 2.3 µM with U-937; 3.67 µM in the test with KG-1; 7.08 µM in the test on SK-OV-3; 6.72 µM in test [1]; 4.7 µM with THP-1.
As to `CCc1nccnc1C(=O)/C=C/c1ccccc1Cl`, the IC50 in the test with U-937 came out at 5.91 µM; in the test with KG-1 it was 3.17 µM; with SK-OV-3, 5.06 µM; in test [1], 5.58 µM; in the test on THP-1, 4.45 µM.
On the same counts, the results for `CCc1nccnc1C(=O)/C=C/c1cccc(Br)c1` are 3.59 µM, 9.32 µM, 3.23 µM, 4.7 µM and 6.69 µM.
As to `CC(/C=C/C(=O)c1cnccn1)=C\c1ccccc1`, the IC50 with U-937 was 22.8 µM; in the test on KG-1, 44.5 µM; in the test with SK-OV-3, 29.6 µM; in test [1], 30.6 µM; in the test on THP-1 it was 19.4 µM.
On the same counts, the results for `O=C(/C=C/C=C/c1ccccc1)c1cnccn1` are 22.4 µM, 22.3 µM, greater than 50 µM, greater than 50 µM and 14.1 µM.
On the same counts, the results for `Cc1ccc(/C=C/C(=O)c2nccnc2C)cc1` are 2.6 µM, 3.83 µM, 3.83 µM, 3.3 µM and 1.93 µM.
On the same counts, the results for `Cc1nccnc1C(=O)/C=C/c1cc2ccccc2o1` are 2.93 µM, 3.3 µM, 4.63 µM, 1.74 µM and 1.9 µM.
On to `CCc1nccnc1C(=O)/C=C/c1ccc(SC)cc1`, for which the IC50 worked out at 4.29 µM in the test on U-937; 9.34 µM in the test on KG-1; 7.94 µM in the test with SK-OV-3; 8.12 µM in test [1]; 2.67 µM in the test on THP-1.
On the same counts, the results for `Cc1cccc(/C=C/C(=O)c2nccnc2C)c1` are 3.37 µM, 5.43 µM, 2.37 µM, 1.55 µM and 5 µM.
For `O=C(/C=C/c1cc2ccccc2o1)c1cnccn1`, the concentration for half-maximal inhibition (IC50) is 10.7 µM in the test on U-937; 9.66 µM with KG-1; greater than 50 µM with SK-OV-3; greater than 50 µM in test [1]; 13.5 µM in the test with THP-1.
As for `CC[C@@]1(O)C(=O)OCc2c1cc1n(c2=O)Cc2cc3ccccc3nc2-1` [CAMPTOTHECIN], the IC50 with SK-OV-3 was determined as 2.56 µM.
As for `Cc1nccnc1C(=O)/C=C/c1ccccc1Cl`, the IC50 amounted to 2.36 µM in the test with U-937; 1.26 µM with KG-1; 3.08 µM in the test with SK-OV-3; 2.94 µM in test [1]; 1.76 µM in the test with THP-1.
The matching figures for `O=C(/C=C/c1ccc(Cl)cc1)c1cnccn1`: 11.5 µM, 12.3 µM, 9.91 µM, 10.4 µM and 10.2 µM.
On to `O=C(/C=C/c1csc2ccccc12)c1cnccn1`, for which the IC50 stood at 14 µM in the test on U-937; 6.08 µM with KG-1; 14.1 µM with SK-OV-3; 15.1 µM in test [1]; 8.76 µM with THP-1.
For the molecule `CSc1ccc(/C=C/C(=O)c2cnccn2)cc1`, the IC50 in the test with U-937 is 7.06 µM; in the test on KG-1, 5.56 µM; in the test with SK-OV-3, 6.48 µM; in test [1], 8.03 µM; in the test with THP-1, 8.37 µM.
As for `Cc1nccnc1C(=O)/C=C/c1ccccc1N1CCOCC1`, the IC50 was 14.3 µM in the test on U-937; 5.63 µM with KG-1; 2.57 µM with SK-OV-3; 3.24 µM in test [1]; 11.5 µM in the test on THP-1.
As for `CCc1nccnc1C(=O)/C=C/c1cccc([N+](=O)[O-])c1`, the IC50 came out at 1.58 µM in the test on U-937; 2.16 µM in the test on KG-1; 3.5 µM in the test on SK-OV-3; 2.67 µM in test [1]; 1.56 µM in the test on THP-1.
The matching figures for `CCc1nccnc1C(=O)/C=C/c1csc2ccccc12`: 1.76 µM, 14.4 µM, 2.06 µM, 2.29 µM and 2.39 µM.
On the same counts, the results for `O=C(/C=C/c1ccc2c(c1)OC(F)(F)O2)c1cnccn1` are 14.4 µM, 17.3 µM, greater than 50 µM, greater than 50 µM and 20.3 µM.
On the same counts, the results for `CCc1nccnc1C(=O)/C=C/c1ccc(OC)c(OC)c1` are 7.95 µM, 9.45 µM, 6.71 µM, 7.92 µM and 8.36 µM.
Turning to `CSc1ccc(/C=C/C(=O)c2nccnc2C)cc1`, the 50% inhibitory concentration (IC50) was 3.9 µM with U-937; 6.84 µM in the test on KG-1; 4.72 µM in the test on SK-OV-3; 6.8 µM in test [1]; 6.01 µM in the test with THP-1.
The matching figures for `CCc1nccnc1C(=O)/C=C/c1ccccc1F`: 2.23 µM, 3.07 µM, 3.42 µM, 3.67 µM and 3.52 µM.
With `Cc1nccnc1C(=O)/C=C/c1ccc(F)cc1F`, the IC50 was determined as 13.5 µM with U-937; 6.15 µM in the test on KG-1; 3.33 µM in the test on SK-OV-3; 2.99 µM in test [1]; 17.6 µM with THP-1.
For `Cc1nccnc1C(=O)/C=C/c1ccc(C(F)(F)F)cc1`, the IC50 in the test on U-937 worked out at 3.23 µM; in the test with KG-1, 5.66 µM; with SK-OV-3, 7.57 µM; in test [1], 8.99 µM; with THP-1, 5.23 µM.
The matching figures for `CCc1nccnc1C(=O)/C=C/c1cccc(Cl)c1`: 1.23 µM, 3.66 µM, 4.69 µM, 5.11 µM and 5.95 µM.
The matching figures for `O=C(/C=C/c1ccc(Cl)cc1Cl)c1cnccn1`: 8.31 µM, 6.57 µM, greater than 50 µM, greater than 50 µM and 6.54 µM.
Consider `CCN(CC)c1ccc(/C=C/C(=O)c2cnccn2)cc1`, for which the IC50 (in the test on U-937; in the test on KG-1; in the test on SK-OV-3; in test [1]; in the test with THP-1) was greater than 50 µM throughout.
Consider `Cc1ccc(/C=C/C(=O)c2cnccn2)cc1`, for which the IC50 in the test on U-937 came to 23 µM; in the test with KG-1 it was 11.4 µM; in the test on SK-OV-3, 10.1 µM; in test [1] it was 16.6 µM; in the test on THP-1, 19.9 µM.
The matching figures for `CCc1nccnc1C(=O)/C=C/c1ccc(C(F)(F)F)cc1`: 5.78 µM, 9.21 µM, 5.92 µM, 7.29 µM and 3.04 µM.
The matching figures for `O=C(/C=C/c1ccc(F)cc1)c1cnccn1`: greater than 50 µM, greater than 50 µM, greater than 50 µM, greater than 50 µM and greater than 50 µM.
On the same counts, the results for `N#Cc1ccc(/C=C/C(=O)c2cnccn2)cc1` are 23.2 µM, 15.9 µM, 11.2 µM, 12.6 µM and 16.2 µM.
For the molecule `CCc1nccnc1C(=O)/C=C/C=C/c1ccc(F)cc1`, the IC50 with U-937 came out at 5.25 µM; with KG-1, 6.91 µM; with SK-OV-3 it was 7.98 µM; in test [1], 8.25 µM; with THP-1, 7.16 µM.
On the same counts, the results for `CCc1nccnc1C(=O)/C=C/c1ccccc1` are 1.99 µM, 3.71 µM, 4.54 µM, 5.4 µM and 23.8 µM.
On the same counts, the results for `CCc1nccnc1C(=O)/C=C/c1ccc(F)cc1` are 2.38 µM, 3.57 µM, 3.11 µM, 3.5 µM and 7.23 µM.
The matching figures for `Cc1nccnc1C(=O)/C=C/c1csc2ccccc12`: 1.5 µM, 1.54 µM, 4.78 µM, 3.28 µM and 2.07 µM.
On to `Cc1nccnc1C(=O)/C=C/c1ccc(-c2ccccc2)cc1`, for which the IC50 amounted to 2.38 µM in the test with U-937; 3.25 µM with KG-1; 1.66 µM with SK-OV-3; 1.67 µM in test [1]; 7.63 µM in the test with THP-1.
The matching figures for `O=C(/C=C/c1cccc(Cl)c1)c1cnccn1`: 11.5 µM, 9.97 µM, 10.9 µM, 10.6 µM and 10.3 µM.
Take `CCc1nccnc1C(=O)/C=C/c1cccc(Cl)c1Cl`: the IC50 in the test with U-937 amounted to 4 µM; in the test with KG-1 it was 10.5 µM; with SK-OV-3 it was 11.3 µM; in test [1], 11.3 µM; in the test on THP-1, 14.5 µM.
